Assay results from PubChem BioAssay AID2060883 (Molecular Pharmacology Branch, DTP, NCI, 2025).
pIC50: −log10 of the molar value.

Tested on: 843782-103-R-J1-PDC complex spheroid viability
Assay: Anticancer human tumor 843782-103-R-J1-PDC patient-derived lung adenocarcinoma cell line growth inhibition [RAS]
Conditions: for viability, T/C: stronger effect = lower value; for pIC50: curve of first compound
Description: RAS pathway inhibitors in Combinations in Complex Spheroids
A high-throughput screen of multi-cell type tumor spheroids was designed to identify active combinations of RAS pathway inhibitors and targeted small molecules. Complex spheroids include a stromal component modeled by human endothelial cells (HUVEC) and fibroblasts modeled by human mesenchymal stem cells (MSCs). The concentration ranges selected for each drug and investigational agent were based upon clinically achievable concentrations if the clinical Cmax of the agent was known.
Compounds. The drugs and investigational agents: abemaciclib (NSC768073), cobimetinib (NSC768068), divarasib (GDC6063, NSC841802), docetaxel (NSC628503), GDC-1971 (RLY-1971, NSC841576), gemcitabine (NSC613327), inavolisib (NSC800729), ipatasertib (NSC767898), KB-0742 (NSC834161), MRTX-1133 (NSC836407), osimertinib (NSC779217), RMC-4630 (NSC839698), RMC-6236 (NSC851965), RMC-6291 (NSC852671), Ro-3306 (NSC812927), sapanisertib (NSC764658), SN-38 (NSC673596), staurosporine (NSC755774), SY5609 (NSC837396), and tovorafenib (DAY101, NSC766906), were obtained from the National Cancer Institute (NCI) Developmental Therapeutics Program Chemical Repository. The FDA-approved anticancer drug set is available from the NCI Developmental Therapeutics Program. […] The stock solutions were prepared in dimethyl sulfoxide (DMSO, Sigma-Aldrich, St. Louis, MO, cat. D2650) at 800-fold the tested concentration and stored at -70 degrees C prior to their use. All drugs and investigational agents were tested over a range starting from a high concentration at or near the clinical Cmax and decreasing in half-log increments. If the clinical Cmax for an agent had not been determined, the highest concentration tested was 10 microM.
Cell Culture. All cells were maintained in an incubator at 37 degrees C and 5% CO2 with 95% humidity. The PDC lines were cultured according to standard operating procedures established by the NCI PDMR. All PDCs were thawed and cultured in Matrigel-coated flasks prepared with a working solution of 1X Ham's F-12 nutrient mix, without supplementation (Invitrogen, Waltham, MA, cat. 11765054), 100 U/mL penicillin-streptomycin (Invitrogen, cat. 15140122), and 2.5% Matrigel (Corning Inc., Corning, NY, cat. 354248) for the first three passages. The 362531-283-R-J2-PDC and 782815-120-R-J1-PDC lines were cultured in 6C/Colon 1B media, which includes advanced DMEM/F-12 (Thermo Fisher Scientific, cat. 12634028), 10 mM HEPES (Thermo Fisher Scientific, cat. 15630080), 1X GlutaMAX supplement (Thermo Fisher Scientific, cat. 35050061), 0.1 mg/mL primocin (InvivoGen, San Diego, CA, cat. ant-pm-2), 10% defined fetal bovine serum, heat inactivated (HyClone Laboratories Inc., Logan, UT, cat. SH30070.03HI), 50% L-WRN conditioned media (ATCC, cat. CRL-3276), 1.25 mM N-Acetyl-L-cysteine (Sigma-Aldrich, cat. A9165), 10 mM nicotinamide (Sigma-Aldrich, cat. N0636), 1X B-27 supplement (Thermo Fisher Scientific, cat. 17504044), 1X N-2 supplement (Thermo Fisher Scientific, cat. 17502048), 50 ng/mL human EGF (Thermo Fisher Scientific, cat. PHG0311), and 10 microM Y-27632 dihydrochloride (Tocris Bioscience, cat. 1254). The K12877-001-R-J1-PDC line was cultured in 6I media, which includes all 6C/Colon 1B media plus 10 ng/mL human FGF-10 (PeproTech, cat. 100-26), 1 ng/mL human FGF-2 (PeproTech, cat. 100-18B), 1 µM prostaglandin E2 (Tocris Bioscience, cat. 2296), […] hydrocortisone (Sigma-Aldrich, cat. H4001), and […] bovine insulin (Sigma-Aldrich, cat. I6634). The K86415-001-R-J1-PDC line was cultured in 6D media, which includes all 6C/Colon 1B media components minus the L-WRN conditioned media. The 485176-168-R4-J1-PDC was cultured in PANC media, which includes all 6C/Colon 1B media plus 100 ng/mL human FGF-10 (PeproTech, cat. 100-26), 500 nM SB-431542 (Selleckchem, cat. S1067), and 10 nM gastrin (Tocris Bioscience, cat. 3006). […]

[1] = second compound 0.0316 µM, first compound 0.0316 µM
[2] = second compound 0.0316 µM, first compound 0.1 µM
[3] = second compound 0.0316 µM, first compound 0.316 µM
[4] = second compound 0.0316 µM, first compound 1 µM
[5] = second compound 0.0316 µM, first compound 3.16 µM
[6] = second compound 0.0316 µM, first compound 10 µM
[7] = second compound 0.1 µM, first compound 0.0316 µM
[8] = second compound 0.1 µM, first compound 0.1 µM
[9] = second compound 0.1 µM, first compound 0.316 µM
[10] = second compound 0.1 µM, first compound 1 µM
[11] = second compound 0.1 µM, first compound 3.16 µM
[12] = second compound 0.1 µM, first compound 10 µM
[13] = second compound 0.316 µM, first compound 0.0316 µM
[14] = second compound 0.316 µM, first compound 0.1 µM
[15] = second compound 0.316 µM, first compound 0.316 µM
[16] = second compound 0.316 µM, first compound 1 µM
[17] = second compound 0.316 µM, first compound 3.16 µM
[18] = second compound 0.316 µM, first compound 10 µM
[19] = second compound 1 µM, first compound 0.0316 µM
[20] = second compound 1 µM, first compound 0.1 µM
[21] = second compound 1 µM, first compound 0.316 µM
[22] = second compound 1 µM, first compound 1 µM
[23] = second compound 1 µM, first compound 3.16 µM
[24] = second compound 1 µM, first compound 10 µM
[25] = second compound 3.16 µM, first compound 0.0316 µM
[26] = second compound 3.16 µM, first compound 0.1 µM
[27] = second compound 3.16 µM, first compound 0.316 µM
[28] = second compound 3.16 µM, first compound 1 µM
[29] = second compound 3.16 µM, first compound 3.16 µM
[30] = second compound 3.16 µM, first compound 10 µM
[31] = second compound 10 µM, first compound 0.0316 µM
[32] = second compound 10 µM, first compound 0.1 µM
[33] = second compound 10 µM, first compound 0.316 µM
[34] = second compound 10 µM, first compound 1 µM
[35] = second compound 10 µM, first compound 3.16 µM
[36] = second compound 10 µM, first compound 10 µM
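Further: viability read after seven days of compound exposure.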

Q: Which viability, T/C (compound 3.16 µM) does the source give for `NC1c2ccccc2OC12CCN(c1cnc3c(N4CCCc5ncccc54)n[nH]c3n1)CC2` (stereo unspecified) here?
A: Its viability, T/C is 51.5% [middle of 4 runs].

Q: What about the viability, T/C (compound 10 µM) of the same molecule?
A: The viability, T/C was 34.7% [middle of 4 runs].

Q: What does the source list for `C[C@@H](NC(=O)c1ncnc(N)c1Cl)c1ncc(C(=O)Nc2cc(C(F)(F)F)c(Cl)cn2)s1` + C#Cc1c(F)ccc2cc(O)cc(-c3ncc4c(N5CC6CCC(C5)N6)nc(OCC56CCCN5CC(F)C6)nc4c3F)c12?
A: pIC50 (second compound 0.0316 µM): < 5.00; pIC50 (second compound 0.1 µM): < 5.00; pIC50 (second compound 0.316 µM): < 5.00; pIC50 (second compound 1 µM): < 5.00; pIC50 (second compound 3.16 µM): < 5.00; pIC50 (second compound 10 µM): < 5.00; viability, T/C [1]: 114%; viability, T/C [2]: 97.2%; viability, T/C [3]: 99.9%; viability, T/C [4]: 101%; viability, T/C [5]: 112%; viability, T/C [6]: 101%; viability, T/C [7]: 112%; viability, T/C [8]: 105%; viability, T/C [9]: 98.6%; viability, T/C [10]: 101%; viability, T/C [11]: 101%; viability, T/C [12]: 105%; viability, T/C [13]: 110%; viability, T/C [14]: 104%; viability, T/C [15]: 103%; viability, T/C [16]: 102%; viability, T/C [17]: 106%; viability, T/C [18]: 108%; viability, T/C [19]: 101%; viability, T/C [20]: 100%; viability, T/C [21]: 105%; viability, T/C [22]: 101%; viability, T/C [23]: 97.2%; viability, T/C [24]: 95.9%; viability, T/C [25]: 86.9%; viability, T/C [26]: 91%; viability, T/C [27]: 90.5%; viability, T/C [28]: 92.7%; viability, T/C [29]: 80.9%; viability, T/C [30]: 87.2%; viability, T/C [31]: 73.3%; viability, T/C [32]: 84.3%; viability, T/C [33]: 64.8%; viability, T/C [34]: 48.9%; viability, T/C [35]: 54.9%; viability, T/C [36]: 49.1%

Q: With `CC(=O)OC12COC1CC(O)C1(C)C(=O)C(O)C3=C(C)C(OC(=O)C(O)C(NC(=O)OC(C)(C)C)c4ccccc4)CC(O)(C(OC(=O)c4ccccc4)C21)C3(C)C` (stereo unspecified) + C#Cc1c(F)ccc2cc(O)cc(-c3ncc4c(N5CC6CCC(C5)N6)nc(OCC56CCCN5CC(F)C6)nc4c3F)c12 as the molecule, how does the pIC50 (second compound 0.0316 µM) read?
A: Its pIC50 is greater than 7.50.

Q: And the pIC50 (second compound 0.1 µM)?
A: The pIC50 was greater than 7.50.

Q: What about the pIC50 (second compound 0.316 µM) of the same molecule?
A: Its pIC50 is greater than 7.50.

Q: And the pIC50 (second compound 1 µM)?
A: Its pIC50 is greater than 7.50.

Q: What about the pIC50 (second compound 3.16 µM) of the same molecule?
A: The pIC50 was greater than 7.50.

Q: And the pIC50 (second compound 10 µM)?
A: The pIC50 was greater than 7.50.

Q: What about the viability, T/C [1] of the same molecule?
A: The viability, T/C was 4.52%.

Q: What about the viability, T/C [2] of the same molecule?
A: Its viability, T/C is 3.3%.

Q: What about the viability, T/C [3] of the same molecule?
A: Its viability, T/C is 5.75%.

Q: And the viability, T/C [4]?
A: The viability, T/C was 5.44%.

Q: And the viability, T/C [5]?
A: The viability, T/C was 6.53%.

Q: What about the viability, T/C [6] of the same molecule?
A: The viability, T/C was 7.38%.

Q: What about the viability, T/C [7] of the same molecule?
A: Its viability, T/C is 5.17%.

Q: What about the viability, T/C [8] of the same molecule?
A: The viability, T/C was 4.75%.

Q: What about the viability, T/C [9] of the same molecule?
A: The viability, T/C was 5.48%.

Q: And the viability, T/C [10]?
A: The viability, T/C was 5.75%.

Q: What about the viability, T/C [11] of the same molecule?
A: Its viability, T/C is 5.28%.

Q: What about the viability, T/C [12] of the same molecule?
A: The viability, T/C was 6.18%.

Q: And the viability, T/C [13]?
A: Its viability, T/C is 5.18%.

Q: What about the viability, T/C [14] of the same molecule?
A: The viability, T/C was 5.95%.

Q: And the viability, T/C [15]?
A: Its viability, T/C is 5.15%.

Q: What about the viability, T/C [16] of the same molecule?
A: Its viability, T/C is 5.27%.

Q: And the viability, T/C [17]?
A: The viability, T/C was 4.44%.

Q: What about the viability, T/C [18] of the same molecule?
A: Its viability, T/C is 8.29%.

Q: What about the viability, T/C [19] of the same molecule?
A: Its viability, T/C is 4.8%.

Q: And the viability, T/C [20]?
A: Its viability, T/C is 6.07%.

Q: And the viability, T/C [21]?
A: Its viability, T/C is 7.89%.

Q: What about the viability, T/C [22] of the same molecule?
A: Its viability, T/C is 6.08%.

Q: What about the viability, T/C [23] of the same molecule?
A: The viability, T/C was 5.69%.

Q: And the viability, T/C [24]?
A: The viability, T/C was 8.43%.

Q: What about the viability, T/C [25] of the same molecule?
A: Its viability, T/C is 5.43%.

Q: And the viability, T/C [26]?
A: The viability, T/C was 5.83%.

Q: What about the viability, T/C [27] of the same molecule?
A: The viability, T/C was 5.33%.

Q: What about the viability, T/C [28] of the same molecule?
A: Its viability, T/C is 4.35%.

Q: And the viability, T/C [29]?
A: Its viability, T/C is 6.83%.

Q: And the viability, T/C [30]?
A: Its viability, T/C is 8.8%.

Q: What about the viability, T/C [31] of the same molecule?
A: The viability, T/C was 5.06%.

Q: What about the viability, T/C [32] of the same molecule?
A: Its viability, T/C is 3.91%.

Q: What about the viability, T/C [33] of the same molecule?
A: Its viability, T/C is 6.9%.

Q: What about the viability, T/C [34] of the same molecule?
A: The viability, T/C was 4.34%.

Q: What about the viability, T/C [35] of the same molecule?
A: The viability, T/C was 3.89%.

Q: And the viability, T/C [36]?
A: Its viability, T/C is 7.89%.
